Where two headings read alike, the source gives them in different places.
How the values were obtained:
[1] = biological target: T1, E. coli transketolase (TK; TKhigh / TKlow forms) (Escherichia coli, UniProt P27302, D469T/R520Q/S385Y); experiment: intrinsic fluorescence quenching (ex […] nm, em […] nm), double-Hill fit; format: binding
T1 construct: gene tktA; N-terminal His6 tag, expressed in E. coli XL10-gold from pQR791; homodimer; purified sample is a mix of TKhigh (oxidised) and TKlow subunits
T1 sequence (P27302 whole entry S385Y/D469T/R520Q): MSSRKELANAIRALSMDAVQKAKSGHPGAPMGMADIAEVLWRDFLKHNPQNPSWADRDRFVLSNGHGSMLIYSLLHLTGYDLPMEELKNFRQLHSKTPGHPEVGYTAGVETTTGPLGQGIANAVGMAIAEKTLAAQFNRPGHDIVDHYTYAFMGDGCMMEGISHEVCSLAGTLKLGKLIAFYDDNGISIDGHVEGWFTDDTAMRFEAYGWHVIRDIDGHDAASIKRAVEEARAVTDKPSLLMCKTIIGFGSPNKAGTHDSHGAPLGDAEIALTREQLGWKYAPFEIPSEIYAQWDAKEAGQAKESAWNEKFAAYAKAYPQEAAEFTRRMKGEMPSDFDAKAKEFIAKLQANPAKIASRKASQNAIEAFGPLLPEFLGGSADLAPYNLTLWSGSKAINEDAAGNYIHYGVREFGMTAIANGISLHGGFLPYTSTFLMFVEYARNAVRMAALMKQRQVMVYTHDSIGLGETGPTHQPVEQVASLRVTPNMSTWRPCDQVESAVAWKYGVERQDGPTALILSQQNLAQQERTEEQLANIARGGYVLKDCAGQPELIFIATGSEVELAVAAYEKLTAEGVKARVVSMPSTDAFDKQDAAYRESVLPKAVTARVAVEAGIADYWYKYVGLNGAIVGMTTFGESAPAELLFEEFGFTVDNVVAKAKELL

[2] = biological target: T2, E. coli transketolase (TK; TKhigh / TKlow forms) (Escherichia coli, UniProt P27302); experiment: as above; format: binding; conditions: read-out: Kd(high)^HPA
T2 construct: gene tktA; N-terminal His6 tag, expressed in E. coli XL10-gold from pQR791; homodimer; purified sample is a mix of TKhigh (oxidised) and TKlow subunits
T2 sequence (P27302 whole entry): as the sequence (P27302 whole entry S385Y/D469T/R520Q) above, with Y385S, T469D, Q520R counted along it

Kd ([1]; read-out: Kd(high)^HPA) | Kd [2] | Kd ([1]; read-out: Kd(high)^TPP) | SMILES
3.61 ± 0.31 mM | 3.42 ± 0.45 mM | – | O=C(O)C(=O)CO [HPA, β-hydroxypyruvate]
– | – | 0.0066 ± 0.00164 mM | Cc1ncc(C[n+]2csc(CCO[P@](=O)(O)OP(=O)(O)O)c2C)c(N)n1 [TPP, thiamine pyrophosphate]
